According to ChEMBL document CHEMBL4616644, “Furofuranone Lignans from Leucophyllum ambiguum” (J Nat Prod, 2020):

Legend:
Acetylcholinesterase [1] = target: T1, Acetylcholinesterase (Homo sapiens, UniProt P22303); assay: Inhibition of acetylcholinesterase (unknown origin) at 0.01 to 100 uM using acetylthiocholine as substrate preincubated for 30 mins followed by substrate addition and measured after 2 mins by Ellman's method relative to control
Acetylcholinesterase [2] = target: T1, Acetylcholinesterase; assay: Inhibition of acetylcholinesterase (unknown origin) using acetylthiocholine as substrate preincubated for 30 mins followed by substrate addition and measured after 2 mins by Ellman's method

T1 sequence (P22303 whole entry): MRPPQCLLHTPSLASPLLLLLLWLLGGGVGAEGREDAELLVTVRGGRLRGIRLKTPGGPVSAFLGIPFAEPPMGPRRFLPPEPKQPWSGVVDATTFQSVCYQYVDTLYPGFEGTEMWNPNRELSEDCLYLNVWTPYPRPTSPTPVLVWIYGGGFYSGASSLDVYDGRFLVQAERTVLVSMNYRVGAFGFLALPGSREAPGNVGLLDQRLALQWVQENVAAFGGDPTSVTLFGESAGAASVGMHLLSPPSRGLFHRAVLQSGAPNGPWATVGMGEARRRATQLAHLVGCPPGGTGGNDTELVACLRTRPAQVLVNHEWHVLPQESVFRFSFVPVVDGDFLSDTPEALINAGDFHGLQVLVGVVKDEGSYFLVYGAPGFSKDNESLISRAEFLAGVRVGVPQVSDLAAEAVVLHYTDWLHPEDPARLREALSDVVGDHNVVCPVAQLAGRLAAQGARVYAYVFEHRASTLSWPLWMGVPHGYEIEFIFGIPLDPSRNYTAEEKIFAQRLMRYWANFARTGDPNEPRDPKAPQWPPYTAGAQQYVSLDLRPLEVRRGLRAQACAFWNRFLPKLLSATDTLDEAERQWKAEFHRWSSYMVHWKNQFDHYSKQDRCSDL

Row | Structure (SMILES) | inhibition (Acetylcholinesterase [1]) | IC50 (Acetylcholinesterase [2])
1 | COc1ccc([C@H]2OC[C@H]3[C@@H]2CO[C@@H]3c2cc(OC)c(OC)c(OC)c2)cc1OC | > 90% | 903 nM
2 | COc1ccc([C@H]2O[C@@H](O)[C@H]3[C@@H]2C(=O)O[C@@H]3c2ccc(OC)c(OC)c2)cc1OC | > 70% | 28 nM
3 | COc1ccc([C@H]2OC(=O)[C@H]3[C@@H]2C(=O)O[C@@H]3c2ccc3c(c2)OCO3)cc1OC | > 90% | 158 nM
4 | COc1ccc([C@H]2O[C@@H](O)[C@H]3[C@@H]2C(=O)O[C@@H]3c2cc(OC)c3c(c2)OCO3)cc1OC | > 70% | 3 nM
5 | COc1ccc([C@H]2OC[C@H]3[C@@H]2C(=O)O[C@@H]3c2ccc3c(c2)OCO3)cc1OC | > 70% | 2230 nM
6 | COc1cc([C@H]2OC[C@H]3[C@@H]2CO[C@@H]3c2cc(OC)c3c(c2)OCO3)cc(OC)c1OC | 81% | 460 nM
7 | COc1ccc([C@H](O)[C@H](N)C(=O)O)cc1OC | > 70% | 1 nM
8 | COc1cc([C@H]2OC[C@H]3[C@@H]2CO[C@@H]3c2cc(OC)c(OC)c(OC)c2)cc(OC)c1OC | 65% | 616 nM
